This is an account of results in patent US12539292B2, “BRM targeting compounds and associated methods of use” (Arvinas Operations, Inc., priority 2018, dated 2026).

The assay deals with T1, BRM (Homo sapiens, UniProt P51531).
T1 construct: In-Cell Western Screen of BRM Degradation in SW1573 Cells; endogenous in cells; host or cells: SW1573
Put plainly: In-cell Western screen of BRM degradation in SW1573 cells (Dmax and DC50). The class given is cell-based. The settings on record: BRM degradation, SW1573 cells; for Dmax: when tested at the top concentration of between 0.3 and 10 μM, read-out: Dmax (%) (% degraded); for DC50: read-out: DC50. Put shortly:
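After adhering overnight, cells received compound for 18-20 hours. They were then washed in cold DPBS, fixed with 4% PFA for 20 min and permeabilized for 30 min. Blocking and fluorescent secondary staining followed before imaging.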

Bounds are passed on as bounds.

T1 sequence (P51531 whole entry): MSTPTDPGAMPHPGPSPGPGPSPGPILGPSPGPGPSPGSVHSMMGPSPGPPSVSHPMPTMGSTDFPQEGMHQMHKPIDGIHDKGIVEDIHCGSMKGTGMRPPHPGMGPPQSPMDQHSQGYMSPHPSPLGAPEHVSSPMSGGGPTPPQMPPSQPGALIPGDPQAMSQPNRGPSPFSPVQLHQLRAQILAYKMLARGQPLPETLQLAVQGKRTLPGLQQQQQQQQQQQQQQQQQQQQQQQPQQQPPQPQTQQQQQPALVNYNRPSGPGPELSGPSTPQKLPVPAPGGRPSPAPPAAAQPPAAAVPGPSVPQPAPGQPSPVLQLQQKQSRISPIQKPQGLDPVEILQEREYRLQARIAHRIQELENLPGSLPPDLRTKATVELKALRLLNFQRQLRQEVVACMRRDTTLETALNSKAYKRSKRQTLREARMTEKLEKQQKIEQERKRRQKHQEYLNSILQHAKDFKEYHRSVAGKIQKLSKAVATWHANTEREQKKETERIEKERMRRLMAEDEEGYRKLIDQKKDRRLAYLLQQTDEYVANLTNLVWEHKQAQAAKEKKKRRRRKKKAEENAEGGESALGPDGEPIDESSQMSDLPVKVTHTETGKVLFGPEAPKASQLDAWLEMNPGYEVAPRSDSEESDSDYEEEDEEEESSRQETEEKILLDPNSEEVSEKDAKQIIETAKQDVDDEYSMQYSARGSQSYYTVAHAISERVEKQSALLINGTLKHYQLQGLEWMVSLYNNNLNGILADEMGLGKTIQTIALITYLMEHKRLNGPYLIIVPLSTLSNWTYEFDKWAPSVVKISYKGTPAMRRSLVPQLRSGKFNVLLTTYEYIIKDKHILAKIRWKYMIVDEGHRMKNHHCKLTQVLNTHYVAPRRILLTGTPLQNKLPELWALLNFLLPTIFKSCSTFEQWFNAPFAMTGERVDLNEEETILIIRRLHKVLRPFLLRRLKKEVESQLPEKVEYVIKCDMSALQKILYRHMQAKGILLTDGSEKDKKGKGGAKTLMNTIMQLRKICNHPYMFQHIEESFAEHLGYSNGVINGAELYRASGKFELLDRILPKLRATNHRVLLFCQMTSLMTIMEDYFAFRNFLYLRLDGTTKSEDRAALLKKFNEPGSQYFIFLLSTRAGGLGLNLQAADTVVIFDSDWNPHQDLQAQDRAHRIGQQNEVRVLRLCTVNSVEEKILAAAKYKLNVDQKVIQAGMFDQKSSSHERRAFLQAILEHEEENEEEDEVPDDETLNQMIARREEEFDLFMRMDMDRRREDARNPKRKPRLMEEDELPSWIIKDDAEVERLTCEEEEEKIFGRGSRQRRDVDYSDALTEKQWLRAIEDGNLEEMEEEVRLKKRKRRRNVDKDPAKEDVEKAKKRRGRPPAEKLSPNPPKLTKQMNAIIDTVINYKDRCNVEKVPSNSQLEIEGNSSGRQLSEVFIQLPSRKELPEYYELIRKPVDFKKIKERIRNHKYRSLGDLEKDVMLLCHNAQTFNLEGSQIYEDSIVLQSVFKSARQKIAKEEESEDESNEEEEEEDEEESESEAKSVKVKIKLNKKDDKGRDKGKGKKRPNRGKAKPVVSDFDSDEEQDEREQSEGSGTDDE

As to `Cc1ncsc1-c1ccc(CNC(=O)[C@@H]2C[C@@H](O)CN2C(=O)[C@H](c2cc(OCCN3CCN(CCCc4cc(N5C6CCC5CN(c5cc(-c7ccccc7O)nnc5N)C6)ccn4)CC3)no2)C(C)C)cc1` [compound 43, (2S,4R)-1-[(2S)-2-[3-(2-[4-[3-(4-[3-[3-amino-6-(2-hydroxyphenyl)pyridazin-4-yl]-3,8-diazabicyclo[3.2.1]octan-8-yl]pyridin-2-yl)propyl]piperazin-1-yl]ethoxy)-1,2-oxazol-5-yl]-3-methylbutanoyl]-4-hydroxy-N-[[4-(4-methyl-1,3-thiazol-5-yl)phenyl]methyl]pyrrolidine-2-carboxamide], the Dmax (usually the greatest extent of degradation seen) is less than 50%.

Take `Cc1ncsc1-c1ccc(CNC(=O)[C@@H]2C[C@@H](O)CN2C(=O)[C@@H](c2cc(OCCN3CCN(CCCc4cc(N5C6CCC5CN(c5cc(-c7ccccc7O)nnc5N)C6)ccn4)CC3)no2)C(C)C)cc1` [compound 44, (2S,4R)-1-[(2R)-2-[3-(2-[4-[3-(4-[3-[3-amino-6-(2-hydroxyphenyl)pyridazin-4-yl]-3,8-diazabicyclo[3.2.1]octan-8-yl]pyridin-2-yl)propyl]piperazin-1-yl]ethoxy)-1,2-oxazol-5-yl]-3-methylbutanoyl]-4-hydroxy-N-[[4-(4-methyl-1,3-thiazol-5-yl)phenyl]methyl]pyrrolidine-2-carboxamide]: the DC50 (usually the midpoint of the concentration-degradation curve) fell in the range of 0.01 to 0.03 µM and the maximal degradation (Dmax) is greater than 75%. For `Cc1ncsc1-c1ccc(CNC(=O)[C@@H]2C[C@@H](O)CN2C(=O)[C@@H](NC(=O)CN2CCN(CCOCCOCCCc3cc(N4C5CCC4CN(c4cc(-c6ccccc6O)nnc4N)C5)ccn3)CC2)C(C)(C)C)cc1` [compound 45, (2S,4R)-1-[(2S)-2-[2-[4-(2-[2-[3-(4-[3-[3-amino-6-(2-hydroxyphenyl)pyridazin-4-yl]-3,8-diazabicyclo[3.2.1]octan-8-yl]pyridin-2-yl)propoxy]ethoxy]ethyl)piperazin-1-yl]acetamido]-3,3-dimethylbutanoyl]-4-hydroxy-N-[[4-(4-methyl-1,3-thiazol-5-yl)phenyl]methyl]pyrrolidine-2-carboxamide] the same measures were greater than 0.03 µM and greater than 75%. For `Cc1ncsc1-c1ccc([C@H](C)NC(=O)[C@@H]2C[C@@H](O)CN2C(=O)[C@H](c2cc(OCCN3CCN(CCOc4cc(N5C6CCC5CN(c5cc(-c7ccccc7O)nnc5N)C6)ccn4)CC3)no2)C(C)C)cc1` [compound 46, (2S,4R)-1-[(2S)-2-[3-[2-(4-[2-[(4-[3-[3-amino-6-(2-hydroxyphenyl)pyridazin-4-yl]-3,8-diazabicyclo[3.2.1]octan-8-yl]pyridin-2-yl)oxy]ethyl]piperazin-1-yl)ethoxy]-1,2-oxazol-5-yl]-3-methylbutanoyl]-4-hydroxy-N-[(1S)-1-[4-(4-methyl-1,3-thiazol-5-yl)phenyl]ethyl]pyrrolidine-2-carboxamide], the DC50 was greater than 0.03 µM and the Dmax was 50 to 75%. `Cc1ncsc1-c1ccc([C@H](C)NC(=O)[C@@H]2C[C@@H](O)CN2C(=O)[C@@H](c2cc(OCCN3CCN(CCOc4cc(N5C6CCC5CN(c5cc(-c7ccccc7O)nnc5N)C6)ccn4)CC3)no2)C(C)C)cc1` [compound 47]: the DC50 is less than 0.0025 µM and the Dmax is greater than 75%. The like results for `Cc1ncsc1-c1ccc(CNC(=O)[C@@H]2C[C@@H](O)CN2C(=O)[C@@H](NC(=O)CN2CCN(c3ccc(CCOCCCc4cc(N5C6CCC5CN(c5cc(-c7ccccc7O)nnc5N)C6)ccn4)cn3)CC2)C(C)(C)C)cc1` [compound 48, (2S,4R)-1-((2S)-2-(2-(4-(5-(2-(3-(4-(3-(3-amino-6-(2-hydroxyphenyl)pyridazin-4-yl)-3,8-diazabicyclo[3.2.1]octan-8-yl)pyridin-2-yl)propoxy)ethyl)pyridin-2-yl)piperazin-1-yl)acetamido)-3,3-dimethylbutanoyl)-4-hydroxy-N-(4-(4-methylthiazol-5-yl)benzyl)pyrrolidine-2-carboxamide] were, in that order, greater than 0.03 µM and greater than 75%.
